The values that follow come from ChEMBL document CHEMBL1212788, “Mode of action of Van-M-02, a novel glycopeptide inhibitor of peptidoglycan synthesis, in vancomycin-resistant bacteria” (Antimicrob Agents Chemother, 2010).

Converted amounts (≈) assume the structure as drawn. A value given as a limit tells only on which side of the number the result lay.

Test [1] relates to Staphylococcus aureus. In words: Antibacterial activity against methicillin susceptible Staphylococcus aureus RN4220 by broth dilution method. It is filed as functional. In general terms: Broth dilution looks for growth in wells or tubes with falling amounts of substance.
For test [2], the system named is Staphylococcus aureus. In words: Antibacterial activity against methicillin susceptible Staphylococcus aureus Smith by broth dilution method. It is filed as functional.
The subject of test [3] is Staphylococcus aureus. The test can be described thus: Antibacterial activity against methicillin resistant Staphylococcus aureus SR-3637 by broth dilution method. It is filed as functional. The conditions noted are these: SR3637.
Test [4] relates to Staphylococcus aureus. In words: Antibacterial activity against vancomycin A resistant Staphylococcus aureus isolate HIP11714 by broth dilution method. It is filed as functional.
The test system of test [5] is Staphylococcus aureus. In words: Antibacterial activity against vancomycin intermediate Staphylococcus aureus ATCC 700787 by broth dilution method. It is filed as functional.
In test [6] the test system is Enterococcus faecium. In words: Antibacterial activity against vancomycin sensitive Enterococcus faecium isolate SR-16972 by broth dilution method. It is filed as functional. The conditions noted are these: isolate SR16972.
For test [7], the system named is Enterococcus faecium. The test can be described thus: Antibacterial activity against vancomycin A resistant Enterococcus faecium isolate SR-7940 by broth dilution method. It is filed as functional. The conditions noted are these: isolate SR7940.
Test [8] concerns Enterococcus faecium. In words: Antibacterial activity against vancomycin B resistant Enterococcus faecium isolate SR-23598 by broth dilution method. It is filed as functional. As to conditions: isolate SR23598.
Test [9] concerns Enterococcus faecium. In words: Antibacterial activity against constitutively vancomycin B resistant Enterococcus faecium isolate SRM1101 by broth dilution method. It is filed as functional.
Test [10] has as its system Enterococcus faecalis. In words: Antibacterial activity against vancomycin susceptible Enterococcus faecalis isolate SR1004 by broth dilution method. It is filed as functional.
In test [11] the test system is Enterococcus faecalis. In words: Antibacterial activity against vancomycin A resistant Enterococcus faecalis isolate SR-7914 by broth dilution method. It is filed as functional. As to conditions: isolate SR7914.
The test system of test [12] is Enterococcus faecalis. In words: Antibacterial activity against vancomycin B resistant Enterococcus faecalis isolate SR-23630 by broth dilution method. It is filed as functional. As to conditions: isolate SR23630.
For test [13], the system named is Staphylococcus aureus. In words: Inhibition of lipid intermediate formation in methicillin susceptible Staphylococcus aureus RN4220 assessed as reduction in N-acetyl-D-[1-3H]glucosamine incorporation in crude assay system. It is filed as functional.
The subject of test [14] is Staphylococcus aureus. The test can be described thus: Inhibition of lipid intermediate formation in vancomycin A resistant Staphylococcus aureus isolate HIP11714 assessed as reduction in N-acetyl-D-[1-3H]glucosamine incorporation in crude assay system. It is filed as functional.
Test [15] is described as follows: Inhibition of methicillin susceptible Staphylococcus aureus RN4220 transglycosylase assessed as inhibition of peptidoglycan formation by crude assay.
Test [16] is described as follows: Inhibition of vancomycin A resistant Staphylococcus aureus isolate HIP11714 transglycosylase assessed as inhibition of peptidoglycan formation by crude assay.
Test [17] has as its system Staphylococcus aureus. The test can be described thus: Antibacterial activity against methicillin susceptible Staphylococcus aureus RN4220 in presence of 8 ug/mL Nalpha,Nepsilon-diacetyl-L-Lys-D-Ala-D-Ala by broth dilution method. It is filed as functional.
For test [18], the system named is Staphylococcus aureus. The test can be described thus: Antibacterial activity against methicillin susceptible Staphylococcus aureus RN4220 in presence of 64 ug/mL Nalpha,Nepsilon-diacetyl-L-Lys-D-Ala-D-Ala by broth dilution method. It is filed as functional.
The subject of test [19] is Staphylococcus aureus. In words: Antibacterial activity against methicillin susceptible Staphylococcus aureus RN4220 in presence of 8 ug/mL Nalpha,Nepsilon-diacetyl-L-Lys-D-Ala-D-Lactate by broth dilution method. It is filed as functional.
Test [20] has as its system Staphylococcus aureus. The test can be described thus: Antibacterial activity against methicillin susceptible Staphylococcus aureus RN4220 in presence of 64 ug/mL Nalpha,Nepsilon-diacetyl-L-Lys-D-Ala-D-Lactate by broth dilution method. It is filed as functional.

Broadly, the MIC is the lowest concentration found to suppress growth. A word on the IC50: it is the concentration at which inhibition is half-maximal.

As to `CN[C@H](CC(C)C)C(=O)N[C@H]1C(=O)N[C@@H](CC(N)=O)C(=O)N[C@H]2C(=O)N[C@H]3C(=O)N[C@H](C(=O)N[C@H](C(=O)O)c4cc(O)cc(O)c4-c4cc3ccc4O)[C@H](O)c3ccc(c(Cl)c3)Oc3cc2cc(c3O[C@H]2O[C@@H](CO)[C@H](O)[C@@H](O)[C@@H]2O[C@@H]2C[C@@](C)(NCc3cccc(NC(=O)c4ccc(C)c(OCc5ccccc5)c4[N+](=O)[O-])c3)[C@@H](O)[C@@H](C)O2)Oc2ccc(cc2Cl)[C@H]1O`, the MIC in [1] amounted to 0.125 µg/mL (≈ 0.0685 µM); in test [2], 0.125 µg/mL (≈ 0.0685 µM); in test [3], 0.25 µg/mL (≈ 0.137 µM); in test [4] it was 4 µg/mL (≈ 2.19 µM); in [5], 2 µg/mL (≈ 1.1 µM); in [6] it was 0.25 µg/mL (≈ 0.137 µM). Also, the MIC stood at 1 µg/mL (≈ 0.548 µM) in test [7]; 0.25 µg/mL (≈ 0.137 µM) in test [8]; 4 µg/mL (≈ 2.19 µM) in test [9]; 0.25 µg/mL (≈ 0.137 µM) in test [10]; 2 µg/mL (≈ 1.1 µM) in test [11]; 0.5 µg/mL (≈ 0.274 µM) in [12]. In addition, the MIC in [17] is 0.125 µg/mL; in test [18], 0.5 µg/mL; in [19] it was 0.125 µg/mL; in test [20], 0.0625 µg/mL. For the same compound, the IC50 in [13] was determined as 32 µg/mL (≈ 17.5 µM); in [14], 76 µg/mL (≈ 41.7 µM); in test [15], 4.2 µg/mL (≈ 2.3 µM); in test [16], 36 µg/mL (≈ 19.7 µM).

With `Cc1ccc(C(=O)Nc2cccc(CN[C@]3(C)C[C@@H](O[C@@H]4[C@@H](Oc5c6cc7cc5Oc5ccc(cc5Cl)[C@@H](O)[C@@H](N)C(=O)N[C@@H](CC(N)=O)C(=O)N[C@H]7C(=O)N[C@H]5C(=O)N[C@H](C(=O)N[C@H](C(=O)O)c7cc(O)cc(O)c7-c7cc5ccc7O)[C@H](O)c5ccc(c(Cl)c5)O6)O[C@@H](CO)[C@H](O)[C@H]4O)O[C@H](C)[C@@H]3O)c2)c([N+](=O)[O-])c1OCc1ccccc1`, the MIC amounted to 2 µg/mL (≈ 1.18 µM) in test [1]; 2 µg/mL (≈ 1.18 µM) in [2]; 2 µg/mL (≈ 1.18 µM) in test [3]; 16 µg/mL (≈ 9.43 µM) in test [4]; 4 µg/mL (≈ 2.36 µM) in test [5]; 2 µg/mL (≈ 1.18 µM) in test [6]. Also, the MIC was 8 µg/mL (≈ 4.72 µM) in test [7]; 4 µg/mL (≈ 2.36 µM) in test [8]; 16 µg/mL (≈ 9.43 µM) in test [9]; 2 µg/mL (≈ 1.18 µM) in [10]; 8 µg/mL (≈ 4.72 µM) in [11]; 4 µg/mL (≈ 2.36 µM) in [12]. The MIC in [17] came out at 2 µg/mL; in [18] it was 2 µg/mL; in [19], 2 µg/mL; in test [20], 1 µg/mL. Moreover, the IC50 came to 140 µg/mL (≈ 82.5 µM) in [13], 93 µg/mL (≈ 54.8 µM) in test [14], 11 µg/mL (≈ 6.48 µM) in test [15] and 53 µg/mL (≈ 31.2 µM) in [16].

Take `C[C@H]1O[C@H](O[C@@H]2[C@@H](Oc3c4cc5cc3Oc3ccc(cc3Cl)[C@@H](O)[C@@H](N)C(=O)N[C@@H](CC(N)=O)C(=O)N[C@H]5C(=O)N[C@H]3C(=O)N[C@H](C(=O)N[C@H](C(=O)O)c5cc(O)cc(O)c5-c5cc3ccc5O)[C@H](O)c3ccc(c(Cl)c3)O4)O[C@@H](CO)[C@H](O)[C@H]2O)C[C@@](C)(N)[C@H]1O`: the MIC in test [1], in [2], in [3], in test [4], in test [5] and in test [6] was more than 64 µg/mL in each case. Moreover, the MIC in test [7], in [8], in test [9], in test [10], in test [11] and in test [12] was more than 64 µg/mL each time. The IC50 in test [13] amounted to 3900 µg/mL (≈ 2950 µM); in test [14] it was 3100 µg/mL (≈ 2340 µM); in test [15], 130 µg/mL (≈ 98.3 µM); in test [16], 920 µg/mL (≈ 696 µM).

For `CN[C@H](CC(C)C)C(=O)N[C@H]1C(=O)N[C@@H](CC(N)=O)C(=O)N[C@H]2C(=O)N[C@H]3C(=O)N[C@H](C(=O)N[C@H](C(=O)O)c4cc(O)cc(O)c4-c4cc3ccc4O)[C@H](O)c3ccc(c(Cl)c3)Oc3cc2cc(c3O[C@@H]2O[C@H](CO)[C@@H](O)[C@H](O)[C@H]2O[C@H]2C[C@](C)(N)[C@H](O)[C@H](C)O2)Oc2ccc(cc2Cl)[C@H]1O` [VANCOMYCIN], the MIC was more than 64 µg/mL in test [4]; 8 µg/mL (≈ 5.52 µM) in test [5]; more than 64 µg/mL in test [7]; more than 64 µg/mL in test [8]; more than 64 µg/mL in [9]; 2 µg/mL (≈ 1.38 µM) in test [10]. The minimal inhibitory concentration (MIC) was more than 64 µg/mL in test [11], 32 µg/mL (≈ 22.1 µM) in test [12] and 16 µg/mL in [18]. Also, the IC50 worked out at 180 µg/mL (≈ 124 µM) in test [13], 2300 µg/mL (≈ 1590 µM) in test [14], 4.5 µg/mL (≈ 3.11 µM) in test [15] and 85 µg/mL (≈ 58.7 µM) in test [16].
